Results: patent EP0717990B1, “COMPOSITION FOR REMEDYING DRUG DEPENDENCE” (TAISHO PHARMACEUTICAL CO. LTD, priority 1993, dated 1995)
Where two headings read alike, the source gives them in different places.

Experiments:
[1] = system: phencyclidine (PCP)-induced abnormal behavior; assay: Antagonism against phencyclidine (PCP)-induced abnormal behavior (head weaving); details: Rattus norvegicus, read-out: ED50 value (mg/kg)
[2] = system: cocaine-dependent monkeys; assay: Effect on cocaine-dependent monkeys (drug self-administration); assay type: in vivo, male cynomolgus monkeys; details: cocaine intake per day, cocaine-dependent cynomolgus monkeys
Description: [Investigation on an effect on cocaine-dependent monkeys]
A test was carried out according to the method described in Drug and Alcohol Dependence, 1989, Vol. 24, pp. 135-142.
A catheter was allowed to indwell chronically in the vein of each monkey and the investigation was carried out by a drug self-administration experimental method in which a definite amount of a liquid drug was automatically poured according to a reinforcement schedule when the animal pushed a lever. When the cocaine intake per day was 20 mg/kg/day or more for 10 consecutive weeks or more, it was judged that the dependence was caused.

5-HT1A = molecular target: T1, 5-HT1A (Homo sapiens, UniProt P08908); details: result in words; cited from earlier work
T1 sequence (P08908 1-422): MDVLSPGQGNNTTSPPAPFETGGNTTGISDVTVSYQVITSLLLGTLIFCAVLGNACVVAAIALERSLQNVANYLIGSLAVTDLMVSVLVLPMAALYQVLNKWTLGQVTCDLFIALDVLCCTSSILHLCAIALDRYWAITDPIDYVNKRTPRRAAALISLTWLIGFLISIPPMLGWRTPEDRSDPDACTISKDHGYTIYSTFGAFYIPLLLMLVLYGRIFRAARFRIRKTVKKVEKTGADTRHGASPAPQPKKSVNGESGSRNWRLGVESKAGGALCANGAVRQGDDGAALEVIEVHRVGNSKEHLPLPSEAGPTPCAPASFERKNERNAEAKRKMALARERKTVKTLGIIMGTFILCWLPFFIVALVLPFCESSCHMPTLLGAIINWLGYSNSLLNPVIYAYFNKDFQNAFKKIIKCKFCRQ

5-HT2 = 5-HT2 (Homo sapiens, UniProt P28223); details: result in words; cited from earlier work
D2 = D2 (Homo sapiens, UniProt P14416); details: result in words; cited from earlier work
D1 = D1 (Homo sapiens, UniProt P21728); details: result in words; cited from earlier work
sigma receptor = details: result in words; cited from earlier work
alcohol dependence = assay: Effect on alcohol dependence (conditioned place preference in shuttle box); assay type: in vivo, male Wistar strain rats; details: rats; for Desire-arising effect for ethanol treatment compartment: 30 minutes before ethanol administration
Description: [Investigation on an effect on alcohol dependence]
A test was carried out according to the method described in Pharmacology Biochemistry and Behavior, Vol. 35, pp. 485-487 (1990).
Compound B used according to the present invention was administered in a dose of 0.1 or 1 mg/kg 30 minutes before ethanol administration in each run.
An experimental apparatus was a 2-compartments box (width 30 cm, length 60 cm, height 30 cm) made of acrylic plates and divided equally into a white compartment and a black compartment by a guillotine door provided in the middle of the box. In addition, the floor of the box had been made non-slip in the white compartment and slippery in the black compartment, that is, the box used was a so-called shuttle box capable of giving both a visual stimulus of black and white and a tactile stimulus of the floor.
Conditioning was carried out once a day for 6 days. Each rat was treated with ethanol (0.5 or 1 g/kg) or physiological saline and then confined in one of the compartment for 50 minutes. The next day, the rat was subjected to a treatment different from that carried out on the previous day, and then confined in the other compartment for 50 minutes. The above procedure was repeated three times. For minimizing the influence of the difference of the conditioning procedure on the result, a counter balance method was adopted, that is, there were employed the following 4 combinations of the ethanol treatment or the physiological saline treatment and the white or black compartment: • 1) ethanol and white; physiological saline and black on the next day, • 2) physiological saline and black; ethanol and white on the next day, • 3) ethanol and black; physiological saline and white on the next day, and • 4) physiological saline and white; ethanol and black on the next day.
As a control group, a group which had been given physiological saline instead of being subjected to ethanol treatment was conditioned in the same manner as above.
After 6 days of the conditioning procedure, each run of measuring the length of stay in each compartment was carried out for 15 minutes. Neither ethanol nor physiological saline was administered to the conditioned rats. In the apparatus, a platform (width 2 cm, length 5 cm) made of a wire net and having a gray color intermediate between white and black was set in the middle of the box, i.e., the compartmenting portion. The length of stay was measured as follows: each rat was placed on the platform, and then a time for which the forefeet and head of the rat were in the black or white compartment was measured as a length of stay in the black or white compartment, respectively, for 15 minutes after the rat got down the platform to become able to come from or go to any of the white and black compartments freely. The desire-arising effect for the drug treatment compartment, i.e., the place preference was determined in terms of a value obtained by subtracting the length of stay in the physiological saline treatment compartment from the length of stay in the drug treatment compartment.

[3] = Single-administration toxicity test; parameters: species or system Wistar strain rats; details: Wistar, rat, in vivo, oral, observation 14 days, read-out: Approximate LD50
Description: [Single-administration toxicity test]
Kind of animal: Wistar strain rats, male and female, 6 to 7 weeks old (at the time of administration). Number of animals: 5 males and 5 females in each group. Administration route: Oral. Number of groups: male 6 groups, female 6 groups. Administered drug: N,N-di-n-propyl-2-[4-methoxy-3-(2-phenylethoxy)phenyl]ethylamine hydrochloride. Dosage form: a solution in distilled water. Dose: male 312 to 891 mg/kg, female 240 to 685 mg/kg (common ratio […]). Observation time: 14 days.

[4] = orally administered in a dose of 0.1 mg/kg

Chain of 5-HT2 (P28223 whole entry): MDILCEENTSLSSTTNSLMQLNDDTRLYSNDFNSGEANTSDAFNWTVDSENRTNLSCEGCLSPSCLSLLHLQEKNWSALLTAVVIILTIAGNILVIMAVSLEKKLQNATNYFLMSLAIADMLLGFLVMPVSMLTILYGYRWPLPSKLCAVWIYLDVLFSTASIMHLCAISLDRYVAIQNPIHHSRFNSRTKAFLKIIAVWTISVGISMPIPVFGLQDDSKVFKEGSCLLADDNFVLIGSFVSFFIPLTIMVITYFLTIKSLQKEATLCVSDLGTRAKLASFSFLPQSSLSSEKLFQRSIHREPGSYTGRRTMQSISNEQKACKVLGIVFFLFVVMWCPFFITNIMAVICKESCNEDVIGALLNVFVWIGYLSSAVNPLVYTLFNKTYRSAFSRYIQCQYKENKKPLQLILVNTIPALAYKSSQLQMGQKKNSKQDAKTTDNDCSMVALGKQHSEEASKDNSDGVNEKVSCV
Chain of D1 (P21728 whole entry): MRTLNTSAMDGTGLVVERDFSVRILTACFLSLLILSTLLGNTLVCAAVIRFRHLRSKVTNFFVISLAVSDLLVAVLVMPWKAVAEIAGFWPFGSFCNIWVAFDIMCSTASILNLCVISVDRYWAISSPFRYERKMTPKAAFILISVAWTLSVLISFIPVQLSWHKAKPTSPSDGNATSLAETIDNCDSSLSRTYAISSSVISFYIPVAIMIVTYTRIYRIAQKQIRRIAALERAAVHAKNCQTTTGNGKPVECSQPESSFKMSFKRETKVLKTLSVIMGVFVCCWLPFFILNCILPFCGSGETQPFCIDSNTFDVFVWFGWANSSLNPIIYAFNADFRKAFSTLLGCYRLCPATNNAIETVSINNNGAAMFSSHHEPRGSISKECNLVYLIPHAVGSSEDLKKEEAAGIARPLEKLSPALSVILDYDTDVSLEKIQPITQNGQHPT
Chain of D2 (P14416 whole entry): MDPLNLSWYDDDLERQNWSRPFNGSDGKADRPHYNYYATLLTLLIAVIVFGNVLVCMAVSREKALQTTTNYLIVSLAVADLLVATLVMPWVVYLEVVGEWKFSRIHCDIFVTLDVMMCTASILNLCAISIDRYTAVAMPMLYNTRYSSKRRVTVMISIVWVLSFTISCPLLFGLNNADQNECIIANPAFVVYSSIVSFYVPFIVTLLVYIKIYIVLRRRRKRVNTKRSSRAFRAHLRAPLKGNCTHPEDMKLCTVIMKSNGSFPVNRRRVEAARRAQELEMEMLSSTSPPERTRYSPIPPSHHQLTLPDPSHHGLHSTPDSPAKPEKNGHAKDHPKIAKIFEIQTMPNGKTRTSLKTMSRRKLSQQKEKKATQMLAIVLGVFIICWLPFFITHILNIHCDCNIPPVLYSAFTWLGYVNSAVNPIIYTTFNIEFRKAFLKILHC

CCCN(CCC)CCc1cc(Cl)ccc1OCCc1ccccc1.O=C(O)C(=O)O [A, N,N-di-n-propyl-2-[5-chloro-2-(2-phenylethoxy)phenyl]ethylamine oxalate]
ED50 [1]: 0.3 mg/kg
Percentage of decrease in cocaine intake (%) [2, 4]: 62.6%

CCCN(CCC)CCc1cccc(OC)c1OCCc1ccccc1.Cl [D, N,N-di-n-propyl-2-[3-methoxy-2-(2-phenylethoxy)phenyl]ethylamine hydrochloride]
ED50 [1]: 0.27 mg/kg
Percentage of decrease in cocaine intake (%) [2, 4]: 49.3%

CCCN(CCC)CCCc1ccc(OC)c(OCCc2ccccc2)c1.Cl [C, N,N-di-n-propyl-3-[4-methoxy-3-(2-phenylethoxy)phenyl]propylamine hydrochloride]
ED50 [1]: 0.22 mg/kg
Percentage of decrease in cocaine intake (%) [2, 4]: 77.1%

CCCN(CCC)CCc1ccc(OC)c(OCCc2ccccc2)c1 [N,N-dipropyl-2-[4-methoxy-3-(2-phenylethoxy)phenyl]ethylamine]
affinity for 5-HT1A (5-HT1A): low affinity
affinity for 5-HT2 (5-HT2): low affinity
affinity for D2 (D2): low affinity
affinity for D1 (D1): low affinity
affinity to sigma receptor (sigma receptor): high affinity

CCCN(CCC)CCc1ccc(OC)c(OCCc2ccccc2)c1.Cl [Compound B, N,N-di-n-propyl-2-[4-methoxy-3-(2-phenylethoxy)phenyl]ethylamine hydrochloride]
ED50 [1]: 0.12 mg/kg
ethanol dependence (alcohol dependence; 0.1 or 1 mg/kg, result in words): suppressed the ethanol dependence in a dose-dependent manner
Desire-arising effect for ethanol treatment compartment (alcohol dependence; Ethanol (0.5 g/kg) + B 0.1 mg/kg): 104 ± 41
Desire-arising effect for ethanol treatment compartment (alcohol dependence; Ethanol (0.5 g/kg) + B 1 mg/kg): 11 ± 32
Desire-arising effect for ethanol treatment compartment (alcohol dependence; Ethanol (1 g/kg) + B 0.1 mg/kg): 101 ± 47
Desire-arising effect for ethanol treatment compartment (alcohol dependence; Ethanol (1 g/kg) + B 1 mg/kg): 9 ± 12
Percentage of decrease in cocaine intake (%) [2, 4]: 89.3%
LD50 at 14 days ([3]; female rats): 312 to 406 mg/kg
LD50 at 14 days ([3]; male rats): 685 to 891 mg/kg

C[C@@H]1CN(CCCn2c3ccccc3c3ccccc32)C[C@H](C)N1 [Rimcazole, reference compound]
ED50 [1]: 28 mg/kg
Percentage of decrease in cocaine intake (%) ([2]; orally administered in a dose of 10 mg/kg): 28.0%
